Source: US5891877A, “Pharmaceutical compounds” (Xenova Limited, priority 1996, dated 1999)

Biological target: PAI-1 (Homo sapiens, UniProt P05121)
Assay: PAI-1 inhibition in the S2251 chromogenic substrate assay (PAI functional assay)
Assay type: biochemical
Conditions: Table 1, second part; for inhibition at 20 µM / inhibition at 50 µM / inhibition at 100 µM: read-out: INHIBITION OF PAI-1 (degree of inhibition); for IC50: PAI-1, S2251 assay; for INHIBITION OF PAI-1 (degree of inhibition): unit assumed
In short: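 Compound preincubated with PAI-1, then added to a tPA/plasminogen system; residual tPA activity converts plasminogen to plasmin.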

Chain of PAI-1 (P05121 24-402): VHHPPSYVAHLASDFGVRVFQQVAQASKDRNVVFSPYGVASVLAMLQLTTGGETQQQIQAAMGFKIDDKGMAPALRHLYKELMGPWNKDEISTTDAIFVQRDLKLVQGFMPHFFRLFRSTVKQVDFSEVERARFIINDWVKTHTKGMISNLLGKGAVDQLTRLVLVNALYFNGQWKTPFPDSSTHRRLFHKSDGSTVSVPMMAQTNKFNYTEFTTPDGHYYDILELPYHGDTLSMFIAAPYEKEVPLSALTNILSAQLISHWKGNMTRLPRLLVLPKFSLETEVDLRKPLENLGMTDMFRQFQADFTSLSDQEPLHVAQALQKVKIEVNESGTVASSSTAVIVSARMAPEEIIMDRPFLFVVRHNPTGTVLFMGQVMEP

Row | inhibition at 20 µM (20 μM) [%] | inhibition at 50 µM [%] | inhibition at 100 µM (100 μM) [%] | IC50 [µM] | INHIBITION OF PAI-1 (degree of inhibition) (20 μM) [%] | INHIBITION OF PAI-1 (degree of inhibition) (100 μM) [%] | SMILES
1 | 87 | 81 | 78 | – | – | – | CN(C)CCOc1ccc(/C=c2\[nH]c(=O)/c(=C/c3ccoc3)[nH]c2=O)cc1 [Compound 5062, (3Z,6Z)-6-(4-(2-Dimethylaminoethoxy)benzylidene)-3-(3-furylmethylene)-2,5-piperazinedione]
2 | 75 | 71 | 70 | – | – | – | CN(C)CCOCc1ccc(/C=c2\[nH]c(=O)/c(=C/c3ccsc3)[nH]c2=O)cc1 [Compound 5069, (3Z,6Z)-6-(4-(2-Dimethylaminoethoxymethyl)benzylidene)-3-(3-thenylidene)-2,5-piperazinedione]
3 | 73 | 82 | 80 | – | – | – | CN(C)CCOc1ccc(/C=c2\[nH]c(=O)/c(=C/c3ccsc3)[nH]c2=O)cc1 [Compound 5071, (3Z,6Z)-6-(4-(2-Dimethylaminoethoxy)benzylidene)-3-(3-thenylidene)-2,5-piperazinedione]
4 | 61 | 61 | 60 | – | – | – | CSc1ccc(/C=c2\[nH]c(=O)/c(=C/c3ccc(OCCN(C)C)cc3)[nH]c2=O)s1 [Compound 5072, (3Z,6Z)-6-(4-(2-Dimethylaminoethoxy)benzylidene)-3-(5-methylthio-2-thenylidene)-2,5-piperazinedione]
5 | 14 | 70 | 63 | – | – | – | CN(C)CCSCc1ccc(/C=c2\[nH]c(=O)/c(=C/c3ccoc3)[nH]c2=O)cc1 [Compound 5073, (3Z,6Z)-6-(4-(2-Dimethylaminoethylthiomethyl)benzylidene)-3-(3-furylmethylene)-2,5-piperazinedione]
6 | 26 | 57 | 47 | – | – | – | CN(C)CC(=O)NCc1ccc(/C=c2\[nH]c(=O)/c(=C/c3ccsc3)[nH]c2=O)cc1 [Compound 5074, (3Z,6Z)-6-(4-Dimethylaminoacetamidomethylbenzylidene)-3-(3-thenylidene)-2,5-piperazinedione]
7 | 52 | 88 | 88 | – | – | – | O=c1[nH]/c(=C\c2cc(Cl)sc2Cl)c(=O)[nH]/c1=C\c1ccccc1 [Compound 5075, (3Z,6Z)-3-(2,5-Dichloro-3-thenylidene)-6-benzylidene-2,5-piperazinedione]
8 | 42 | 46 | 34 | – | – | – | CN(C)CCOCc1ccc(/C=c2\[nH]c(=O)/c(=C/c3ccoc3)[nH]c2=O)cc1 [Compound 5077, (3Z,6Z)-6-(4-(2-Dimethylaminoethoxymethyl)benzylidene)-3-(3-furylmethylene)-2,5-piperazinedione]
9 | 11 | 67 | 60 | – | – | – | CN(C)CCSCc1ccc(/C=c2\[nH]c(=O)/c(=C/c3ccsc3)[nH]c2=O)cc1 [Compound 5078, (3Z,6Z)-6-(4-(2-Dimethylaminoethylthiomethyl)benzylidene)-3-(3-thenylidene)-2,5-piperazinedione]
10 | 14 | 58 | 44 | – | – | – | CN(C)CC(=O)NCc1ccc(/C=c2\[nH]c(=O)/c(=C/c3ccccc3Br)[nH]c2=O)cc1 [Compound 5079, (3Z,6Z)-3-(2-Bromobenzylidene)-6-(4-dimethylaminoacetamidomethylbenzylidene)-2,5-piperazinedione]
11 | 50 | 34 | 25 | – | – | – | CN(C)CC(=O)NCc1ccc(/C=c2\[nH]c(=O)/c(=C/c3ccoc3)[nH]c2=O)cc1 [Compound 5081, (3Z,6Z)-6-(4-Dimethylaminoacetamidomethylbenzylidene)-3-(3-furylmethylene)-2,5-piperazinedione]
12 | 94 | – | 90 | 3.5 | – | – | CN(C)CCCOc1ccc(/C=c2\[nH]c(=O)/c(=C/c3ccc4ccccc4c3)[nH]c2=O)cc1 [Compound 5188, (3Z,6Z)-6-(4-(3-Dimethylaminopropoxy)benzylidene)-3-(2-Naphthylmethylene)-2,5-piperazinedione]
13 | – | – | – | – | 10 | 10 | CN(C)CCCOc1ccc(/C=c2\[nH]c(=O)/c(=C/c3cccc4ccccc34)[nH]c2=O)cc1 [Compound 5200, (3Z,6Z)-6-(4-(3-Dimethylaminopropoxy)benzylidene)-3-(1-Naphthylmethylene)-2,5-piperazinedione]
14 | – | – | – | 100 | 33 | 56 | CN(C)CCCOc1ccc(/C=c2\[nH]c(=O)/c(=C/c3cccc4ccccc34)[nH]c2=O)cc1 [Compound 5205]
15 | – | – | – | 3 | 78 | 72 | CN(C)CCCOc1ccc(/C=c2\[nH]c(=O)/c(=C/c3ccc4ccccc4c3)[nH]c2=O)cc1 [Compound 5206]
16 | – | – | – | 7 | – | – | CN(C)CCN(C)c1ccc(/C=c2\[nH]c(=O)/c(=C/c3ccccc3)[nH]c2=O)s1 [Compound 5299, (3Z,6Z)-6-Benzylidene-3-(5-(2-dimethylaminoethyl)methylamino-2-thienylmethylene)-2,5-piperazinedione]
17 | – | – | – | 9 | – | – | CN(C)CCOc1ccc(/C=c2\[nH]c(=O)/c(=C/c3ccccc3)[nH]c2=O)s1 [Compound 5324, (3Z,6Z)-6-Benzylidene-3-(5-(2-dimethylaminoethoxy)-2-thienylmethylene)-2,5-piperazinedione]
18 | 17 | – | – | – | – | – | CN(C)CCOc1csc(/C=c2\[nH]c(=O)/c(=C/c3ccccc3)[nH]c2=O)c1 [Compound 5327, (3Z,6Z)-6-Benzylidene-3-(4-(2-dimethylaminoethoxy)-2-thienylmethylene)-2,5-piperazinedione]
19 | – | – | – | 22 | – | – | CN(C)CCc1ccc(/C=c2\[nH]c(=O)/c(=C/c3ccccc3)[nH]c2=O)s1 [Compound 5335, (3Z,6Z)-6-Benzylidene-3-(5-(2-dimethylaminoethyl)-2-thienylmethylene)-2,5-piperazinedione]
20 | – | – | – | 18 | – | – | CN(C)CCCOc1ccc(/C=c2\[nH]c(=O)/c(=C/c3ccc(C(=O)N4CCc5ccccc5C4)cc3)[nH]c2=O)cc1 [Compound 5367]
21 | – | – | – | 12 | – | – | O=C(NCCCCN1CCc2ccccc2C1)c1ccc(/C=c2\[nH]c(=O)/c(=C/c3ccccc3)[nH]c2=O)cc1 [Compound 5371, N-(4-(1,2,3,4-Tetrahydro-2-isoquinolyl)butyl)-4-((3Z,6Z)-6-benzylidene-2,5-dioxo-3-piperazinylidene)methylbenzamide]
22 | – | – | – | 12 | – | – | CN(C)CCCOc1ccc(/C=c2\[nH]c(=O)/c(=C/c3ccc(C(=O)N4CCc5ccccc5C4)cc3)[nH]c2=O)cc1 [Compound 5376]
23 | 65 | – | – | 15 | – | – | O=C(NCCCCN1CCc2ccccc2C1)c1ccc(/C=c2\[nH]c(=O)/c(=C/c3ccccc3)[nH]c2=O)cc1 [Compound 5379]
24 | – | – | – | 18 | – | – | CN(C)CCCOc1ccc(/C=c2\[nH]c(=O)/c(=C/c3ccc(C(=O)NCCN4CCc5ccccc5C4)cc3)[nH]c2=O)cc1 [Compound 5386, N-(2-(1,2,3,4-Tetrahydro-2-isoquinolyl)ethyl)-4-((3Z,6Z)-6-(4-(3-dimethylaminopropoxy)benzylidene)-2,5-dioxo-3-piperazinylidene)methylbenzamide]
